Results taken from patent publication US9403802B2, “Heterocyclic compound and use therefor” (Takeda Pharmaceutical Company Limited, priority 2012, dated 2016).
Like-named read-outs stand apart in the source and are kept apart here.

Target: T1, human M1 receptor (hCHRM1) (Homo sapiens, UniProt P11229)
T1 construct: expressed in transfected cells; host or cells: CHO-K1
T1 sequence (P11229 1-460): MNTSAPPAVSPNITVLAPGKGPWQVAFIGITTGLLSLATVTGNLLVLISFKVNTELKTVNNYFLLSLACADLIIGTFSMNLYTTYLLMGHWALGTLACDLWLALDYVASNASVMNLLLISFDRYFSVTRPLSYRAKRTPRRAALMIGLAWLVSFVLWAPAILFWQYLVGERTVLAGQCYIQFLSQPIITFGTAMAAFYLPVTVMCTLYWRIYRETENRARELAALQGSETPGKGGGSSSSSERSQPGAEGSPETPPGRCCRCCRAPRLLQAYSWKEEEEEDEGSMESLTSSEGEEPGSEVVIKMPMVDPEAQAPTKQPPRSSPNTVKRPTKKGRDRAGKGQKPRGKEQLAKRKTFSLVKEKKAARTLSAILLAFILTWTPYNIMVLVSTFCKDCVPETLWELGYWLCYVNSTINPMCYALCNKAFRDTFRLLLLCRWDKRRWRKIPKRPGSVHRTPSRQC
Test: Measurement of cholinergic muscarinic M1 receptor positive allosteric modulator (M1PAM) activity, calcium fluorescence (FLIPRtetra)
Type: cell-based
Settings: for activity (%) at 10 μM: test compound 10 μM with acetylcholine at EC20 (final 0.6 nM), 100% = acetylcholine 1 μM, 0% = DMSO
Experimental: The activity of a test compound in the presence of acetylcholine at EC20 concentration (final concentration 0.6 nM), which affords an action corresponding to 20% of the maximum activity, was measured as M1PAM activity. The method is as follows. CHO-K1 cells forcibly expressing a human M1 receptor (hCHRM1) were plated on a 384-well black clear bottom plate (BD Falcon) at 5,000 cells/well, and cultured in an incubator at 37° C., 5% CO2 for 1 day. The medium in the cell plate was removed, and assay buffer A (Recording medium (DOJINDO LABORATORIES), 0.1% bovine serum albumin (BSA) (Wako Pure Chemical Industries, Ltd.), 2.5 μg/mL Fluo-4 AM (DOJINDO LABORATORIES), 0.08% Pluronic F127 (DOJINDO LABORATORIES), 1.25 mM probenecid (DOJINDO LABORATORIES)) containing a calcium indicator was added at 30 μL/well. The cells were left standing in the incubator at 37° C., 5% CO2 for 30 min, and further left standing at room temperature for 30 min. A test compound prepared by diluting with assay buffer B (HBSS (Invitrogen), 20 mM HEPES (Invitrogen), 0.1% BSA) containing 2.4 nM acetylcholine was added at 10 μL/well, and the fluorescence was measured by FLIPRtetra (Molecular Devices) for 1 min every 1 second. With the definition that the amount of change in the fluorescence on addition of acetylcholine (final concentration 1 μM) is 100% and that on addition of DMSO instead of a test compound is 0%, the activity (%) of the test compound and the inflection point in the concentration-dependent curve of the test compound were calculated as IP values.

[1] = inflection point of the concentration-dependent curve, with acetylcholine at EC20 (final 0.6 nM), CHO-K1 cells expressing hCHRM1, read-out: IP value

SMILES	EC50 [1]	activity (%) at 10 μM (CHO-K1 cells expressing hCHRM1)	EC50
COc1ccc(Cn2cc(C(=O)NC3CCCCC3)c(=O)c3c(F)ccc(F)c32)cc1 [Example 14, N-cyclohexyl-5,8-difluoro-1-(4-methoxybenzyl)-4-oxo-1,4-dihydroquinoline-3-carboxamide]	920 nM	96%	
NC(=O)c1ccc(Cn2cc(C(=O)N[C@H]3CCCC[C@@H]3O)c(=O)c3ccccc32)cc1 [Example 78, 1-(4-carbamoylbenzyl)-N-[(1S,2S)-2-hydroxycyclohexyl]-4-oxo-1,4-dihydroquinoline-3-carboxamide]		86%	2.2 nM
COc1ccc(Cn2cc(C(=O)NN)c(=O)c3ccccc32)cc1 [Example 13, 1-(4-methoxybenzyl)-4-oxo-1,4-dihydroquinoline-3-carbohydrazide]	6100 nM	77%	
Cc1cc(-c2ccc(Cn3cc(C(=O)N[C@H]4CCC[C@@H]4O)c(=O)c4ccccc43)cc2)ccn1 (racemic) [Example 93, N-[(1,2-trans)-2-hydroxycyclopentyl]-1-[4-(2-methylpyridin-4-yl)benzyl]-4-oxo-1,4-dihydroquinoline-3-carboxamide]		95%	12 nM
O=C(N[C@H]1CCCC[C@@H]1O)c1cn(Cc2ccc(-n3cccn3)cc2)c2c(F)ccc(F)c2c1=O (racemic) [Example 3, 5,8-difluoro-N-[(1,2-trans)-2-hydroxycyclohexyl]-4-oxo-1-[4-(1H-pyrazol-1-yl)benzyl]-1,4-dihydroquinoline-3-carboxamide]		93%	8.7 nM
COc1ccc(Cn2cc(C(=O)NC3CC3)c(=O)c3c(F)ccc(F)c32)cc1 [Example 8, N-cyclopropyl-5,8-difluoro-1-(4-methoxybenzyl)-4-oxo-1,4-dihydroquinoline-3-carboxamide]	2000 nM	100%	
NC(=O)c1ccc(Cn2nc(C(N)=O)c(=O)c3ccccc32)cc1 [Example 73, 1-(4-carbamoylbenzyl)-4-oxo-1,4-dihydrocinnoline-3-carboxamide]	63 nM	96%	
COc1ccc(Cn2cc(C(=O)N[C@H]3CC(F)(F)CC[C@@H]3O)c(=O)c3c(F)ccc(F)c32)cc1 (racemic) [Example 84, N-[(1,2-trans)-5,5-difluoro-2-hydroxycyclohexyl]-5,8-difluoro-1-(4-methoxybenzyl)-4-oxo-1,4-dihydroquinoline-3-carboxamide]		85%	91 nM
COc1ccc(Cn2cc(C(N)=O)c(=O)c3c(F)ccc(F)c32)cc1 [Example 1, 5,8-difluoro-1-(4-methoxybenzyl)-4-oxo-1,4-dihydroquinoline-3-carboxamide]	630 nM	90%	
CC(F)(F)c1ccc(Cn2cc(C(=O)N[C@H]3CCCC[C@@H]3O)c(=O)c3ccccc32)cc1 (racemic) [Example 82, 1-[4-(1,1-difluoroethyl)-benzyl]-N-[(1,2-trans)-2-hydroxycyclohexyl]-4-oxo-1,4-dihydroquinoline-3-carboxamide]	170 nM	83%	
COc1ccc(Cn2cc(C(=O)N[C@H]3CCC[C@@H]3O)c(=O)c3c(F)ccc(F)c32)cc1 (racemic) [Example 25, 5,8-difluoro-N-[(1,2-trans)-2-hydroxycyclopentyl]-1-(4-methoxybenzyl)-4-oxo-1,4-dihydroquinoline-3-carboxamide]	190 nM	98%	
COc1ccc(Cn2cc(C(=O)NCCO)c(=O)c3c(F)ccc(F)c32)cc1 [Example 17, 5,8-difluoro-N-(2-hydroxyethyl)-1-(4-methoxybenzyl)-4-oxo-1,4-dihydroquinoline-3-carboxamide]	5800 nM	69%	
COc1ccc(Cn2nc(C(=O)N[C@@H]3CCCC[C@H]3O)c(=O)c3ccccc32)cc1 [Example 52, N-[(1R,2R)-2-hydroxycyclohexyl]-1-(4-methoxybenzyl)-4-oxo-1,4-dihydrocinnoline-3-carboxamide]	1900 nM	87%	
CNC(=O)c1cn(Cc2ccc(OC)cc2)c2c(F)ccc(F)c2c1=O [Example 7, 5,8-difluoro-1-(4-methoxybenzyl)-N-methyl-4-oxo-1,4-dihydroquinoline-3-carboxamide]	3500 nM	71%	
COc1ccc(Cn2cc(C(=O)NC3CCCCC3CO)c(=O)c3c(F)ccc(F)c32)cc1 (racemic) [Example 65, 5,8-difluoro-N-[(1,2-trans)-2-(hydroxymethyl)-cyclohexyl]-1-(4-methoxybenzyl)-4-oxo-1,4-dihydroquinoline-3-carboxamide]	420 nM	96%	
COc1ccc(Cn2cc(C(=O)N[C@H]3CCCC[C@@H]3O)c(=O)c3c(F)ccc(F)c32)cc1 [Example 27, 5,8-difluoro-N-[(1S,2S)-2-hydroxycyclohexyl]-1-(4-methoxybenzyl)-4-oxo-1,4-dihydroquinoline-3-carboxamide]		102%	38 nM
NC(=O)c1ccc(Cn2nc(C(=O)N[C@H]3CCCC[C@@H]3O)c(=O)c3ccccc32)cc1 (racemic) [Example 75, 1-(4-carbamoylbenzyl)-N-[(1,2-trans)-2-hydroxycyclohexyl]-4-oxo-1,4-dihydrocinnoline-3-carboxamide]	7.7 nM	99%	
NC(=O)c1ccc(Cn2cc(C(=O)N[C@H]3CCCC[C@@H]3O)c(=O)c3ccccc32)cc1 (racemic) [Example 74, 1-(4-carbamoylbenzyl)-N-[(1,2-trans)-2-hydroxycyclohexyl]-4-oxo-1,4-dihydroquinoline-3-carboxamide]		97%	5.4 nM
O=C(N[C@H]1CCCC[C@@H]1O)c1cn(Cc2ccc(-c3ccn[nH]3)cc2)c2ccccc2c1=O (racemic) [Example 85, N-[(1,2-trans)-2-hydroxycyclohexyl]-4-oxo-1-[4-(1H-pyrazol-5-yl)benzyl]-1,4-dihydroquinoline-3-carboxamide]		90%	4.7 nM
COCCNC(=O)c1cn(Cc2ccc(OC)cc2)c2c(F)ccc(F)c2c1=O [Example 20, 5,8-difluoro-1-(4-methoxybenzyl)-N-(2-methoxyethyl)-4-oxo-1,4-dihydroquinoline-3-carboxamide]	5000 nM	72%	
O=C(N[C@H]1CCCC[C@@H]1O)c1nn(Cc2ccc(-n3cccn3)cc2)c2ccccc2c1=O (racemic) [Example 4, N-[(1,2-trans)-2-hydroxycyclohexyl]-4-oxo-1-[4-(1H-pyrazol-1-yl)benzyl]-1,4-dihydrocinnoline-3-carboxamide]	27 nM	107%	
COc1ccc(Cn2nc(C(=O)N[C@H]3CCCC[C@@H]3O)c(=O)c3ccccc32)cc1 [Example 51, N-[(1S,2S)-2-hydroxycyclohexyl]-1-(4-methoxybenzyl)-4-oxo-1,4-dihydrocinnoline-3-carboxamide]	68 nM	97%	
NC(=O)c1ccc(Cn2cc(C(=O)N[C@H]3CCCC[C@@H]3F)c(=O)c3ccccc32)cc1 (racemic) [Example 88, 1-(4-carbamoylbenzyl)-N-[(1,2-trans)-2-fluorocyclohexyl]-4-oxo-1,4-dihydroquinoline-3-carboxamide]		101%	12 nM
COc1ccc(Cn2nc(C(=O)N[C@H]3CCOC[C@@H]3O)c(=O)c3ccccc32)cc1 (racemic) [Example 71, 1,5-anhydro-2,3-dideoxy-3-({[1-(4-methoxybenzyl)-4-oxo-1,4-dihydrocinnolin-3-yl]carbonyl}amino)-DL-threo-pentitol]	16 nM	97%	
O=C(N[C@H]1CCCC[C@@H]1O)c1cn(Cc2ccc(-n3cccn3)cc2)c2c(F)cccc2c1=O (racemic) [Example 80, 8-fluoro-N-[(1,2-trans)-2-hydroxycyclohexyl]-4-oxo-1-[4-(1H-pyrazol-1-yl)benzyl]-1,4-dihydroquinoline-3-carboxamide]		92%	21 nM
